Measurements: patent publication US20090298878A1, “OXIME COMPOUNDS AND THE USE THEREOF” (priority 2006, published 2009)

Molecular target: T1, N-type calcium channel (NTCC) (Homo sapiens, UniProt Q00975)
T1 construct: host or cells: IMR32 cells differentiated with dibutyryl cAMP and bromodeoxyuridine
Assay: FLIPR calcium mobilization assay for N-type calcium channel (differentiated IMR32 cells)
Type: cell-based
Details: about 1.0 μM or less; calcium mobilization and/or electrophysiological assay
Method: Cell maintenance and differentiation. Unless noted otherwise, cell culture reagents were purchased from Mediatech of Hemdon, Md. IMR32 cells (American Type Culture Collection, ATCC, Manassas, Va.) were routinely cultured in growth medium consisting of minimum essential medium containing 10% fetal bovine serum (FBS, Hyclone, Logan, Utah), 100 U/mL penicillin, 100 μg/mL streptomycin, 2 mM L-glutamine, 1 mM sodium pyruvate, and 1× MEM non-essential amino acids. 80-90% confluent flasks of cells were differentiated using the following differentiation medium: Growth medium plus 1 mM dibutyryl cyclic AMP (Sigma, St. Louis, Mo.), and 2.5 μM bromodeoxyuridine (Sigma). Cells were differentiated for 8 days by replacing differentiation medium every 2-3 days.
FLIPR Calcium Mobilization Assay for N-type Calcium Channel. One day prior to performing this assay, differentiated IMR32 cells were treated with 1× CellStripper, and seeded on poly-D-lysine-coated 96-well clear-bottom black plates (Becton Dickinson, Franklin Lakes, N.J.) at 200,000 cells/well. On the day of the assay, the cell plates were washed with IMR32 buffer (127 mM NaCl, 1 mM KCl, 2 mM MgCl2, 700 μM NaH2PO4, 5 mM CaCl2, 5 mM NaHCO3, 8 mM HEPES, 10 mM glucose, pH 7.4), then pre-stimulated with KCl and loaded as follows: 0.05 mL of IMR32 buffer, 0.05 mL of each compound tested diluted in IMR32 buffer containing 20 μM nitrendipine (Sigma), and 0.1 mL KCl dissolved in IMR32 buffer, plus Fluo-4 were added (3 μM final concentration, Molecular Probes, Eugene, Oreg.). Final test compound concentrations ranged from about 846 pM to about 17 μM, final nitrendipine concentration was 5 μM, and final KCl concentration was 90 mM. After 1 hour, the cells were washed twice with 0.05 mL of each compound tested in nitrendipine-containing IMR32 buffer (no KCl or Fluo-4), and then replaced with 0.1 mL of each compound tested in nitrendipine-containing IMR32 buffer. Plates were then transferred to a Fluorimetric imaging Plate Reader (FLIPR^96, Molecular Devices, Inc., Sunnyvale, Calif.) for assay. The FLIPR measured basal Fluo-4 fluorescence for 315 seconds (i.e., 5 minutes and 15 seconds), then added 0.1 mL KCl agonist dissolved in IMR32 buffer and measured fluorescence for another 45 seconds. Final test compound concentrations on the cells after FLIPR read ranged from about 846 pM to about 17 μM, final nitrendipine concentration was 5 μM, and final KCl concentration was 90 mM. Data were collected over the entire time course and analyzed using Excel, Graph Pad Prism (version 3.02, Graph Pad, San Diego, Calif.), or an in-house non-linear regression analysis software.

T1 sequence (Q00975 whole entry): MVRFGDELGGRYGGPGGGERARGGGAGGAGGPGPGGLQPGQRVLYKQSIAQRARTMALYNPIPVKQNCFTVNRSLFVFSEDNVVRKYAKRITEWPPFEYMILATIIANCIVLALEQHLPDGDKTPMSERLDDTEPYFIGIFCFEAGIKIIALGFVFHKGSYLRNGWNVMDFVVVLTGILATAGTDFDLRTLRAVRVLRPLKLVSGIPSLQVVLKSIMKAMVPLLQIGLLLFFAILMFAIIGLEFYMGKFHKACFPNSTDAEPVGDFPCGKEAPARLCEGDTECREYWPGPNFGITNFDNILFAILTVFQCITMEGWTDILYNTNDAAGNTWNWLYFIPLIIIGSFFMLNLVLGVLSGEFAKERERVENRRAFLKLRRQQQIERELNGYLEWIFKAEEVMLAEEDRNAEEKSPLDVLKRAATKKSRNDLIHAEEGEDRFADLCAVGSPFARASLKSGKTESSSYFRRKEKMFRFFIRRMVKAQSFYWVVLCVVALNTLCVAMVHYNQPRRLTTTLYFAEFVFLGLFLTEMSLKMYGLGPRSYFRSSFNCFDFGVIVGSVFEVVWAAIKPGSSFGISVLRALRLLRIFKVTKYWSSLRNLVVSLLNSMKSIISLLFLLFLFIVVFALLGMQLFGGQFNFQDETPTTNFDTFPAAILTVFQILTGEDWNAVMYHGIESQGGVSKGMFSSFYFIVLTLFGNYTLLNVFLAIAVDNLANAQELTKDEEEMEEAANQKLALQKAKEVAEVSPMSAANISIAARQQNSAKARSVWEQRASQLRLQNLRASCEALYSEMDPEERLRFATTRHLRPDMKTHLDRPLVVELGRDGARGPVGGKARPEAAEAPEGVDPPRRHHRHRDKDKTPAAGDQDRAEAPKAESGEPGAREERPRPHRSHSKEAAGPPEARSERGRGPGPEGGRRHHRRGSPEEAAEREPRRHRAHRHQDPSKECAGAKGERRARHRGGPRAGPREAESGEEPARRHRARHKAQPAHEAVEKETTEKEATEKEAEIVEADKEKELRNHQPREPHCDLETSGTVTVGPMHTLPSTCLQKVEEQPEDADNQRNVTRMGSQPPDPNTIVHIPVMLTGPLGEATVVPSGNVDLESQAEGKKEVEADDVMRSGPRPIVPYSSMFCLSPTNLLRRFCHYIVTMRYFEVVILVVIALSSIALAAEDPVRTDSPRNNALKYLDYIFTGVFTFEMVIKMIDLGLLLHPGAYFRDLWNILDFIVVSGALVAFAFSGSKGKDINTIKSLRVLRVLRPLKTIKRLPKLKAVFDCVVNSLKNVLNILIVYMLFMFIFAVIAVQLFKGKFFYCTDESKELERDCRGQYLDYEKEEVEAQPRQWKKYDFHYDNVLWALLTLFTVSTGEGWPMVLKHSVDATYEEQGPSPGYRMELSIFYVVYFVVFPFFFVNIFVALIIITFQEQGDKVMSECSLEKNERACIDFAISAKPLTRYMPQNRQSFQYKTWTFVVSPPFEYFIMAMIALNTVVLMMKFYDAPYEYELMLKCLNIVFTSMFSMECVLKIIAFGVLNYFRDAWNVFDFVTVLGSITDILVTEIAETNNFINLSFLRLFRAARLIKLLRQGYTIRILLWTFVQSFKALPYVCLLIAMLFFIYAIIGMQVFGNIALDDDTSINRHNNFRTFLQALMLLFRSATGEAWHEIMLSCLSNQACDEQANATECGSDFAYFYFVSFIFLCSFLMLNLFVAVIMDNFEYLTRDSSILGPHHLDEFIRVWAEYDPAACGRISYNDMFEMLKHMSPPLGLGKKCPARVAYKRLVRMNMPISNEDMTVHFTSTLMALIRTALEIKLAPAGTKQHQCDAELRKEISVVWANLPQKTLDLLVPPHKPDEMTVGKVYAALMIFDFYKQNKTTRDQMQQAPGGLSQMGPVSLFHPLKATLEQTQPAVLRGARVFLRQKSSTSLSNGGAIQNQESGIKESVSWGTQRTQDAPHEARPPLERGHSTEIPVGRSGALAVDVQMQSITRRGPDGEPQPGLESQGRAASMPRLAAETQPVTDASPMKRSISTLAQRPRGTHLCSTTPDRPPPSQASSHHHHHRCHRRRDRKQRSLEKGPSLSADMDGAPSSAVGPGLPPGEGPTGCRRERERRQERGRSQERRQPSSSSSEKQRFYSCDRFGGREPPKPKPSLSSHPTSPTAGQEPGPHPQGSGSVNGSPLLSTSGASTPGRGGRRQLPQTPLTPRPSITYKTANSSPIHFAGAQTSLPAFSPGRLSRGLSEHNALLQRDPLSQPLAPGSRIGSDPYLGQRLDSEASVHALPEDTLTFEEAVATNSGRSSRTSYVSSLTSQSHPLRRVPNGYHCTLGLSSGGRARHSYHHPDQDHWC

SMILES	IC50 [nM]
N#Cc1cc(CON=C2CCN(S(=O)(=O)c3ccc(OC(F)(F)F)cc3)CC2)ccc1F [Example 108, 2-Fluoro-5-[1-(4-trifluoromethoxybenzenesulfonyl)piperidin-4-ylideneaminooxymethyl]benzonitrile]	≤ 1000
COc1cccc(CON=C2CCN(S(=O)(=O)c3ccc(OC(F)(F)F)cc3)CC2)n1 [Example 110, 1-(4-Trifluoromethoxybenzenesulfonyl)piperidin-4-one O-(6-methoxypyridin-2-ylmethyl)oxime]	≤ 1000
COc1ncccc1CON=C1CCN(S(=O)(=O)c2ccc(OC(F)(F)F)cc2)CC1 [Example 111, 1-(4-Trifluoromethoxybenzenesulfonyl)piperidin-4-one O-(2-methoxypyridin-3-ylmethyl)oxime]	≤ 1000
O=S(=O)(c1ccc(OC(F)(F)F)cc1)N1CCC(=NOCc2cc(Cl)ccn2)CC1 [Example 118, 1-(4-Trifluoromethoxybenzenesulfonyl)piperidin-4-one O-(4-chloropyridin-2-ylmethyl)oxime]	≤ 1000
O=S(=O)(c1ccc(OC(F)(F)F)cc1)N1CCC(=NOC(c2ccc(F)cc2)c2ccc(F)cc2)CC1 [Example 119, 1-(4-Trifluoromethoxybenzenesulfonyl)piperidin-4-one O-[bis(4-fluorophenyl)methyl]oxime]	≤ 1000
N#Cc1ccccc1CON=C1CCN(S(=O)(=O)c2ccc(OC(F)(F)F)cc2)CC1 [Example 120, 2-[1-(4-Trifluoromethoxybenzenesulfonyl)piperidin-4-ylideneaminooxymethyl]benzonitrile]	≤ 1000
N#Cc1cccc(CON=C2CCN(S(=O)(=O)c3ccc(OC(F)(F)F)cc3)CC2)c1 [Example 121, 3-[1-(4-Trifluoromethoxybenzenesulfonyl)piperidin-4-ylideneaminooxymethyl]benzonitrile]	≤ 1000
O=S(=O)(c1ccc(OC(F)(F)F)cc1)N1CCC(=NOCc2ccc(Cl)cn2)CC1 [Example 127, 1-(4-Trifluoromethoxybenzenesulfonyl)piperidin-4-one O-(5-chloropyridin-2-ylmethyl)oxime]	≤ 1000
CN(C)c1cccc(CON=C2CCN(S(=O)(=O)c3ccc(OC(F)(F)F)cc3)CC2)c1 [Example 128, 1-(4-Trifluoromethoxybenzenesulfonyl)piperidin-4-one O-(3-dimethylaminobenzyl)oxime]	≤ 1000
O=[N+]([O-])c1ccc(CON=C2CCN(S(=O)(=O)c3ccc(OC(F)(F)F)cc3)CC2)cc1 [Example 134, 1-(4-Trifluoromethoxybenzenesulfonyl)piperidin-4-one O-(4-nitrobenzyl)oxime]	≤ 1000
COc1ccc(CON=C2CCN(S(=O)(=O)c3ccc(OC(F)(F)F)cc3)CC2)cn1 [Example 144, 1-(4-Trifluoromethoxybenzenesulfonyl)piperidin-4-one O-(6-methoxypyridin-3-ylmethyl)oxime]	≤ 1000
COc1cc(CON=C2CCN(S(=O)(=O)c3ccc(OC(F)(F)F)cc3)CC2)cc(Cl)n1 [Example 147, 1-(4-Trifluoromethoxybenzenesulfonyl)piperidin-4-one O-(2-chloro-6-methoxypyridin-4-ylmethyl)oxime]	≤ 1000
Cn1c(Cl)cc(CON=C2CCN(S(=O)(=O)c3ccc(OC(F)(F)F)cc3)CC2)cc1=O [Example 152, 6-Chloro-1-methyl-4-[1-(4-trifluoromethoxybenzenesulfonyl)piperidin-4-ylideneaminooxymethyl]-1H-pyridin-2-one]	≤ 1000
Cn1c(CON=C2CCN(S(=O)(=O)c3ccc(OC(F)(F)F)cc3)CC2)nc2ccccc21 [Example 160, 1-(4-(Trifluoromethoxy)phenylsulfonyl)piperidin-4-one O-(1-methyl-1H-benzo[d]imidazol-2-yl)methyl oxime]	≤ 1000
O=S(=O)(c1ccc(OC(F)(F)F)cc1)N1CCC(=NOCc2nc3ccccc3[nH]2)CC1 [Example 162, 1-(4-(Trifluoromethoxy)phenylsulfonyl)piperidin-4-one O-(1H-benzo[d]imidazol-2-yl)methyl oxime]	≤ 1000
N#Cc1cccc(CON=C2CCN(S(=O)(=O)c3ccc(OC(F)(F)F)cc3)CC2)n1 [Example 173, 6-((1-(4-(Trifluoromethoxy)phenylsulfonyl)piperidin-4-ylideneaminooxy)methyl)picolinonitrile]	≤ 1000
N#Cc1cc(CON=C2CCN(S(=O)(=O)c3ccc(OC(F)(F)F)cc3)CC2)ccn1 [Example 177, 4-((1-(4-(Trifluoromethoxy)phenylsulfonyl)piperidin-4-ylideneaminooxy)methyl)picolinonitrile]	≤ 1000
N#Cc1ccnc(CON=C2CCN(S(=O)(=O)c3ccc(OC(F)(F)F)cc3)CC2)c1 [Example 178, 2-((1-(4-(trifluoromethoxy)phenylsulfonyl)piperidin-4-ylideneaminooxy)methyl)isonicotinonitrile]	≤ 1000
N#Cc1cc(CON=C2CCN(C(=O)CCC(c3ccc(F)cc3)c3ccc(F)cc3)CC2)ccc1F [Example 181, 5-((1-(4,4-Bis(4-fluorophenyl)butanoyl)piperidin-4-ylideneaminooxy)methyl)-2-fluorobenzonitrile]	≤ 1000
N#Cc1cccc(C(ON=C2CCN(S(=O)(=O)c3ccc(OC(F)(F)F)cc3)CC2)C2CC2)c1 (stereo not shown) [Example 186, 3-(Cyclopropyl(1-(4-(trifluoromethoxy)phenylsulfonyl)piperidin-4-ylideneaminooxy)methyl)benzonitrile]	≤ 1000
COc1cc(CON=C2CCN(S(=O)(=O)c3ccc(OC(F)(F)F)cc3)CC2)nc2ccccc12 [Example 189, 1-(4-(Trifluoromethoxy)phenylsulfonyl)piperidin-4-one O-(4-methoxyquinolin-2-yl)methyl oxime]	≤ 1000
N#Cc1cccc(C(CO)ON=C2CCN(S(=O)(=O)c3ccc(OC(F)(F)F)cc3)CC2)c1 (stereo not shown) [Example 191, 3-(2-Hydroxy-1-(1-(4-(trifluoromethoxy)phenylsulfonyl)piperidin-4-ylideneaminooxy)ethyl)benzonitrile]	≤ 1000
N#Cc1cccc(CON=C2CCN(S(=O)(=O)c3ccc(F)cc3)CC2)c1 [Example 196]	≤ 1000
N#Cc1cccc(CON=C2CCN(S(=O)(=O)c3ccc(OC(F)F)cc3)CC2)c1 [Example 197, 3-((1-(4-(Difluoromethoxy)phenylsulfonyl)piperidin-4-ylideneaminooxy)methyl)benzonitrile]	≤ 1000
N#Cc1ccc(S(=O)(=O)N2CCC(=NOCc3cccc(C#N)c3)CC2)cc1 [Example 199]	≤ 1000
N#Cc1cccc(CON=C2CCN(S(=O)(=O)c3ccc(F)c(F)c3)CC2)c1 [Example 210, 3-((1-(3,4-Difluorophenylsulfonyl)piperidin-4-ylideneaminooxy)methyl)benzonitrile]	≤ 1000
O=c1ccc(C(ON=C2CCN(S(=O)(=O)c3ccc(OC(F)(F)F)cc3)CC2)c2ccc(F)cc2)c[nH]1 (stereo not shown) [Example 214, 5-((4-Fluorophenyl)(1-(4-(trifluoromethoxy)phenylsulfonyl)piperidin-4-ylideneaminooxy)methyl)pyridin-2(1H)-one]	≤ 1000
O=S(=O)(c1ccc(Cl)cc1Cl)N1CCC(=NOC(c2ccc(F)cc2)c2ccc(F)cc2)CC1 [Example 228, 1-(2,4-Dichlorophenylsulfonyl)piperidin-4-one O-bis(4-fluorophenyl)methyl oxime]	≤ 1000
N#Cc1ccccc1S(=O)(=O)N1CCC(=NOC(c2ccc(F)cc2)c2ccc(F)cc2)CC1 [Example 229, 2-(4-(Bis(4-fluorophenyl)methoxyimino)piperidin-1-ylsulfonyl)benzonitrile]	≤ 1000
CCCCc1ccc(S(=O)(=O)N2CCC(=NOC(c3ccc(F)cc3)c3ccc(F)cc3)CC2)cc1 [Example 231, 1-(4-Butylphenylsulfonyl)piperidin-4-one O-bis(4-fluorophenyl)methyl oxime]	≤ 1000

Same assay, conditions: calcium mobilization in vitro assay, N-type calcium channel blockers

SMILES	IC50 [nM]
O=C(CC(=O)N1CCC(=NOC(c2ccc(F)cc2)c2ccc(F)cc2)CC1)Nc1ccc(F)cc1F [Example 227, 3-(4-(Bis(4-fluorophenyl)methoxyimino)piperidin-1-yl)-N-(2,4-difluorophenyl)-3-oxopropanamide]	1100
